According to patent US20090062294A1, “HETEROARYL-SUBSTITUTED UREA MODULATORS OF FATTY ACID AMIDE HYDROLASE” (priority 2007, published 2009):

What was measured:
FAAH = target: T1, FAAH (Homo sapiens, UniProt O00519); assay: Assay Method 1: FAAH assay, 3H-anandamide hydrolysis in homogenate of T84 cells or SK-N-MC cells transfected with human FAAH; assay type: biochemical; settings: average of results, > = solubility limit or highest concentration tested
T1 sequence (O00519 1-579): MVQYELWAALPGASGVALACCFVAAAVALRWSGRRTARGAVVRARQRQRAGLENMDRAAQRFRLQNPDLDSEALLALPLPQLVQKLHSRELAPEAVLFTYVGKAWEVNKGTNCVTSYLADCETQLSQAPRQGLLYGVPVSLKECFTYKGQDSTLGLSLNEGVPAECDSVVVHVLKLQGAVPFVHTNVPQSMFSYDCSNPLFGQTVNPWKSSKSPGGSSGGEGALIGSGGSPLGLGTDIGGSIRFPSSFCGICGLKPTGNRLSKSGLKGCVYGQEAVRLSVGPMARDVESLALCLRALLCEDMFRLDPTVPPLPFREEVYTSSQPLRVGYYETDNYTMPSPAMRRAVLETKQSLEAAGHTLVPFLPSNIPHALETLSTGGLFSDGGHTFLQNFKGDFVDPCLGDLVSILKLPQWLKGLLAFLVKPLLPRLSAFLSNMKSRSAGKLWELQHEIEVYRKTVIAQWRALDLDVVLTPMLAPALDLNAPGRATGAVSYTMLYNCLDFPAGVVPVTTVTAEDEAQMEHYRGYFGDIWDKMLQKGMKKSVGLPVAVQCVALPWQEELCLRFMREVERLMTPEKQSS
Summary of the method: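 Hydrolysis of ^3H-anandamide (80 nM final, added last) was measured over 1 h at rt, using test compound with homogenate of T84 cells or human FAAH-transfected SK-N-MC cells. The homogenization buffer was 125 mM Tris, 1 mM EDTA, 0.02% Triton X-100, pH 9. Unbound labelled ethanolamine was passed through charcoal filters and scintillation-counted.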

rat FAAH = target: T2, rat FAAH (Rattus norvegicus, UniProt P97612); assay: Assay Method 2: FAAH assay, 3H-anandamide hydrolysis in homogenate of SK-N-MC cells transfected with rat FAAH; assay type: biochemical; settings: average of results, > = solubility limit or highest concentration tested
T2 sequence (P97612 1-579): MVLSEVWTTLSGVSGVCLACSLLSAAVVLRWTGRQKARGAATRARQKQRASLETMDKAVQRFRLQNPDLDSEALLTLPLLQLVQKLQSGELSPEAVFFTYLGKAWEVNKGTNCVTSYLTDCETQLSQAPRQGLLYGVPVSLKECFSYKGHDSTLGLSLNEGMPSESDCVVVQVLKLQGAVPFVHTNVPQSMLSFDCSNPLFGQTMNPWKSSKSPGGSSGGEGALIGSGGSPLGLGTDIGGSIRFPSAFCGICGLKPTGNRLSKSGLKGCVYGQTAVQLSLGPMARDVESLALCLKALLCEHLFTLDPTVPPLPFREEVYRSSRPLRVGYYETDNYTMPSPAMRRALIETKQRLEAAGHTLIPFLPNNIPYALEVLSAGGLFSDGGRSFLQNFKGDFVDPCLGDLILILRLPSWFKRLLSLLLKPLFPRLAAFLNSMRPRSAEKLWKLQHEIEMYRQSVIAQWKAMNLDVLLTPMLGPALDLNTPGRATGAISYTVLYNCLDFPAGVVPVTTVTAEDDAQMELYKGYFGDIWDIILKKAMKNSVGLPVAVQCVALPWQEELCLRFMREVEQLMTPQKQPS
Summary of the method: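 Read-out is scintillation counting of [3H]-ethanolamine passing through activated charcoal, after 1 h at rt with 80 nM final [3H]-AEA. Enzyme source: lysate of G418-selected SK-N-MC clones expressing rat FAAH, homogenized in Tris/EDTA/glycerol/0.02% Triton buffer, pH 9.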

Structure (SMILES)	IC50 (FAAH) [nM]	IC50 (rat FAAH) [nM]
O=C(Nc1noc2ccccc12)N1CCN(Cc2cccc(Oc3ccc(C(F)(F)F)cc3)c2)CC1 [Example 109, N-1,2-Benzisoxazol-3-yl-4-{3-[4-(trifluoromethyl)phenoxy]benzyl}-piperazine-1-carboxamide]	6	4
O=C(Nc1noc2cc(F)ccc12)N1CCN(Cc2cccc(Oc3ccc(Cl)cc3)c2)CC1 [Example 245, 4-[3-(4-Chloro-phenoxy)-benzyl]-piperazine-1-carboxylic acid (6-fluoro-benzo[d]isoxazol-3-yl)-amide]	19	15
